Reference: patent US10508088B2, “Methods using HDAC11 inhibitors” (FORMA Therapeutics, Inc., priority 2016, dated 2019)

Biological target: Recombinant N-terminal GST tag full-length human HDAC11 (Homo sapiens (Human), UniProt Q96DB2)
Test: Probe binding HDAC11 assay, time resolved fluorescence (TRF)
Conditions: read-out: HDAC11 IC50 Range
Protocol: The probe binding HDAC11 assay was performed using a time resolved fluorescence (TRF) assay format. Recombinant N-terminal GST tag full-length human HDAC11 was expressed and purified from baculovirus in Sf9 insect cells (SignalChem, # H93-30G-1000). Each assay was performed in 1536 black well microplates (Corning, #3936) in a final volume of 8 μL in assay buffer containing 50 mM HEPES (pH 7.5), 50 mM KCl, 50 mM NaCl, 0.5 mM GSH (L-Glutathione reduced, Sigma #G4251), 0.03% BGG (0.22 μM filtered, Sigma, #G7516-25G), and 0.01% Triton X-100 (Sigma, #T9284-10L). 100 nL of 10-point, 3-fold serial dilution in DMSO was pre-dispensed into respective wells of 1536 assay plates for a final test concentration range of 25 μM to 1.3 nM respectively. The final concentration in the assay of HDAC11 and probe (a fluorescein labeled HDAC 11 inhibitor) was 2.5 nM and 20 nM respectively. 4 μL of 2× probe and 2× anti-GST Terbium (Cisbio, #61GSTXLB) was added to assay plates followed by 4 μL of 2×HDAC11. Plates were incubated for 16 hours at room temperature before time resolved fluorescence was read on the Envision (Excitation at 340 nm, and Emission at 485 nm and 535 nm, Perkin Elmer).
Data from HDAC11 Assays were reported as percent inhibition (inh) compared with control wells based on the following equation: % inh=1−((FLU−AveLow)/(AveHigh−AveLow)) where FLU=measured time resolved fluorescence. AveLow=average time resolved fluorescence of no enzyme control (n=32). AveHigh=average time resolved fluorescence of DMSO control (n=32). IC50 values were determined by curve fitting of the standard 4 parameter logistic fitting algorithm included in the Activity Base software package: IDBS XE Designer Model205. Data is fitted using the Levenburg Marquardt algorithm.

Recombinant N-terminal GST tag full-length human HDAC11, sequence (Q96DB2 whole entry): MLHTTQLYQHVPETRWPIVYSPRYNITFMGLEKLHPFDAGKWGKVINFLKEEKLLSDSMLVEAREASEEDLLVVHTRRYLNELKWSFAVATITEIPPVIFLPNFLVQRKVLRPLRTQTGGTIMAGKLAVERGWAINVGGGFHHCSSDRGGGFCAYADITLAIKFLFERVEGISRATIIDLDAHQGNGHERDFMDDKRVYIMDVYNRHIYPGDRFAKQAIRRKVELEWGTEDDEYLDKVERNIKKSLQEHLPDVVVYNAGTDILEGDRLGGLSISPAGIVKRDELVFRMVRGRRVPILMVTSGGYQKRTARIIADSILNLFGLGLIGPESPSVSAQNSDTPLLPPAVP

SMILES | IC50 [nM]
O=C(NO)c1cccc(Nc2nc3cc(Br)c(OC(F)(F)F)cc3[nH]2)c1 [Example 33-7, 3-((5-bromo-6-(trifluoromethoxy)-1H-benzo[d]imidazol-2-yl)amino)-N-hydroxybenzamide] | < 500
O=C(NO)c1cc(Nc2nc3cc(Cl)c(Cl)cc3o2)ccn1 [Example 4-6, 4-((5,6-dichlorobenzo[d]oxazol-2-yl)amino)-N-hydroxypicolinamide] | < 500
O=C(NO)c1cccc(Nc2nc3cc(C(F)(F)F)c(-c4cccnc4)cc3[nH]2)c1 [Example 36-2, N-hydroxy-3-((6-(pyridin-3-yl)-5-(trifluoromethyl)-1H-benzo[d]imidazol-2-yl)amino)benzamide] | < 500
NS(=O)(=O)c1ccc2[nH]c(Nc3cccc(C(=O)NO)c3)nc2c1 [Example 33-24, N-hydroxy-3-((5-sulfamoyl-1H-benzo[d]imidazol-2-yl)amino)benzamide] | > 1000
CN(C)C(=O)c1ccc(-c2cc3[nH]c(Nc4cccc(C(=O)NO)c4)nc3cc2C(F)(F)F)cc1 [Example 36-6, 4-(2-((3-(hydroxycarbamoyl)phenyl)amino)-5-(trifluoromethyl)-1H-benzo[d]imidazol-6-yl)-N,N-dimethylbenzamide] | < 500
CN(C)c1ccc(-c2cc3[nH]c(Nc4cccc(C(=O)NO)c4)nc3cc2C(F)(F)F)cn1 [Example 36-12, 3-((6-(6-(dimethylamino)pyridin-3-yl)-5-(trifluoromethyl)-1H-benzo[d]imidazol-2-yl)amino)-N-hydroxybenzamide] | < 500
Cn1c(Nc2cccc(C(=O)NO)c2)nc2cc(Cl)c(Cl)cc21 [Example 13-1, 3-(5,6-dichloro-1-methyl-1H-benzo[d]imidazol-2-ylamino)-N-hydroxybenzamide] | < 500
CCOc1cccc(-c2cc3[nH]c(Nc4cccc(C(=O)NO)c4)nc3cc2C(F)(F)F)c1 [Example 36-4, 3-((6-(3-ethoxyphenyl)-5-(trifluoromethyl)-1H-benzo[d]imidazol-2-yl)amino)-N-hydroxybenzamide] | < 500
Cc1cc2[nH]c(Nc3cccc(C(=O)NO)c3)nc2cc1Br [Example 33-12, 3-((5-bromo-6-methyl-1H-benzo[d]imidazol-2-yl)amino)-N-hydroxybenzamide] | < 500
COCCn1c(Nc2cc(C(=O)NO)c3ccccc3c2)nc2ccccc21 [Example 23-3, N-hydroxy-3-((1-(2-methoxyethyl)-1H-benzo[d]imidazol-2-yl)amino)-1-naphthamide] | > 1000
COCc1cccc(-c2cc3[nH]c(Nc4cccc(C(=O)NO)c4)nc3cc2C(F)(F)F)c1 [Example 36-16, N-hydroxy-3-((6-(3-(methoxymethyl)phenyl)-5-(trifluoromethyl)-1H-benzo[d]imidazol-2-yl)amino)benzamide] | < 500
O=C(NO)c1cccc(Nc2nc3cc(C(F)(F)F)c(-c4ccc(N5CCOCC5)cc4)cc3[nH]2)c1 [Example 36-19, N-hydroxy-3-((6-(4-morpholinophenyl)-5-(trifluoromethyl)-1H-benzo[d]imidazol-2-yl)amino)benzamide] | < 500
O=C(NO)c1cc(Nc2nc3ccccc3[nH]2)cc2ccccc12 [Example 23-2, 3-((1H-benzo[d]imidazol-2-yl)amino)-N-hydroxy-1-naphthamide] | > 1000
COc1cc2nc(Nc3cccc(C(=O)NO)c3)[nH]c2cc1Cl [Example 33-19, 3-((6-chloro-5-methoxy-1H-benzo[d]imidazol-2-yl)amino)-N-hydroxybenzamide] | 500 to 1000
O=C(NO)c1cccc(Nc2nc3cc(C(F)(F)F)c(-c4ccc5c(c4)OCCO5)cc3[nH]2)c1 [Example 36-9, 3-((6-(2,3-dihydrobenzo[b][1,4]dioxin-6-yl)-5-(trifluoromethyl)-1H-benzo[d]imidazol-2-yl)amino)-N-hydroxybenzamide] | < 500
O=C(NO)c1cccc(Nc2nc3nccnc3[nH]2)c1 [Example 29-1, 3-((1H-imidazo[4,5-b]pyrazin-2-yl)amino)-N-hydroxybenzamide] | > 1000
O=C(NO)c1cccc(Nc2nc3cc(C(F)(F)F)c(-c4ccc5ncccc5c4)cc3[nH]2)c1 [Example 36-8, N-hydroxy-3-((6-(quinolin-6-yl)-5-(trifluoromethyl)-1H-benzo[d]imidazol-2-yl)amino)benzamide] | < 500
O=C(NO)c1cccc(Nc2nc3cc4c(cc3[nH]2)OCCO4)c1 [Example 33-9, 3-((6,7-dihydro-1H-[1,4]dioxino[2′,3′:4,5]benzo[1,2-d]imidazol-2-yl)amino)-N-hydroxybenzamide] | 500 to 1000

SMILES | IC50 [nM]
O=C(NO)c1cccc(Nc2nc3cc(Cl)c(Cl)cc3o2)c1F [Example 4-2, 3-((5,6-dichlorobenzo[d]oxazol-2-yl)amino)-2-fluoro-N-hydroxybenzamide] | < 500
O=C(NO)c1cccc(Nc2nc3ncccc3o2)c1 [Example 32-1, N-hydroxy-3-(oxazolo[4,5-b]pyridin-2-ylamino)benzamide] | > 1000
COCCN(c1cccc(C(=O)NO)c1)c1nc2ccccc2[nH]1 [Example 25-1, 3-((1H-benzo[d]imidazol-2-yl)(2-methoxyethyl)amino)-N-hydroxybenzamide] | > 1000
N#Cc1cc2nc(Nc3cccc(C(=O)NO)c3)n(CCCCCN)c2cc1C(F)(F)F [Example 21-1, 3-((1-(5-aminopentyl)-5-cyano-6-(trifluoromethyl)-1H-benzo[d]imidazol-2-yl)amino)-N-hydroxybenzamide] | < 500
CN(c1cccc(C(=O)NO)c1)c1nc2cc(-c3cccnc3)c(C(F)(F)F)cc2n1C [Example 34-1, N-hydroxy-3-(methyl(1-methyl-5-(pyridin-3-yl)-6-(trifluoromethyl)-1H-benzo[d]imidazol-2-yl)amino)benzamide] | > 1000
O=C(NO)c1cccc(Nc2nc3cc(C(F)(F)F)c(-c4cccc(O)c4)cc3[nH]2)c1 [Example 36-10, N-hydroxy-3-((6-(3-hydroxyphenyl)-5-(trifluoromethyl)-1H-benzo[d]imidazol-2-yl)amino)benzamide] | < 500
Cc1cc2nc(Nc3cccc(C(=O)NO)c3)[nH]c2cc1C [Example 23-4, 3-((5,6-dimethyl-1H-benzo[d]imidazol-2-yl)amino)-N-hydroxybenzamide] | < 500
O=C(NO)c1cccc(Nc2cc3cc(Cl)c(Cl)cc3[nH]2)c1 [Example 28-1, 3-((5,6-dichloro-1H-indol-2-yl)amino)-N-hydroxybenzamide] | < 500
O=C(NO)c1cccc(Nc2nc3cc4c(cc3[nH]2)OCCCO4)c1 [Example 33-8, 3-((7,8-dihydro-1H,6H-[1,4]dioxepino[2′,3′:4,5]benzo[1,2-d]imidazol-2-yl)amino)-N-hydroxybenzamide] | > 1000
O=C(NO)c1cc(Nc2nc3cc(Cl)c(Cl)cc3o2)ccc1F [Example 4-1, 5-(5,6-dichlorobenzo[d]oxazol-2-ylamino)-2-fluoro-N-hydroxybenzamide] | < 500
N#Cc1cc2nc(Cc3cccc(C(=O)NO)c3)[nH]c2cc1C(F)(F)F [Example 27-1, 3-((5-cyano-6-(trifluoromethyl)-1H-benzo[d]imidazol-2-yl)methyl)-N-hydroxybenzamide] | < 500
O=C(NO)c1cccc(Nc2nc3cc(C(F)(F)F)c(-c4ccoc4)cc3[nH]2)c1 [Example 36-20, 3-((6-(furan-3-yl)-5-(trifluoromethyl)-1H-benzo[d]imidazol-2-yl)amino)-N-hydroxybenzamide] | < 500
O=C(NO)c1ccc(F)c(Nc2nc3cc(Cl)c(Cl)cc3o2)c1 [Example 4-3, 3-((5,6-dichlorobenzo[d]oxazol-2-yl)amino)-4-fluoro-N-hydroxybenzamide] | < 500
O=C(NO)c1cccc(Nc2nc3cc(Cl)ccc3[nH]2)c1 [Example 33-20, 3-((5-chloro-1H-benzo[d]imidazol-2-yl)amino)-N-hydroxybenzamide] | > 1000
O=C(NO)c1ccnc(Nc2nc3cc(Cl)c(Cl)cc3o2)c1 [Example 4-7, 2-((5,6-dichlorobenzo[d]oxazol-2-yl)amino)-N-hydroxyisonicotinamide] | < 500
CN(c1cccc(C(=O)NOC(=O)NCc2ccccc2)c1)c1nc2cc(C#N)c(C(F)(F)F)cc2[nH]1 [Example 37-2, N-((benzylcarbamoyl)oxy)-3-((5-cyano-6-(trifluoromethyl)-1H-benzo[d]imidazol-2-yl)(methyl)amino)benzamide] | > 1000
COCCn1c(Nc2cccc(C(=O)NO)c2)nc2c(OC)cccc21 [Example 24-1, N-hydroxy-3-((4-methoxy-1-(2-methoxyethyl)-1H-benzo[d]imidazol-2-yl)amino)benzamide] | > 1000
O=C(NO)c1cccc(Nc2nc3cc(C(F)(F)F)c(-c4ccccc4CO)cc3[nH]2)c1 [Example 36-11, N-hydroxy-3-((6-(2-(hydroxymethyl)phenyl)-5-(trifluoromethyl)-1H-benzo[d]imidazol-2-yl)amino)benzamide] | < 500
